Measurements as given in patent US6825230B2, “Spiro and dispiro 1,2,4-trixolane antimalarials” (Medicines for Malaria Venture MMV, priority 2002, dated 2004).

Tested on: ANKA strain of P. berghei
Assay: Single dose STI in vivo screen in infected mice
Set-up: species or system Plasmodium berghei
Conditions: for Survival (days) 10 mg/kg po: single 10 mg/kg po in 3% ethanol and 7% Tween 80; for Survival (days) 10 mg/kg po / Survival (days) 10 mg/kg SSV po / Survival (days) 10 mg/kg sc: untreated 6-7 days; for Activity (%) 10 mg/kg po: single 10 mg/kg po in 3% ethanol and 7% Tween 80 on day 1 post-infection; for Survival (days) 10 mg/kg SSV po: single 10 mg/kg po in SSV; for Survival (days) 10 mg/kg sc: single 10 mg/kg sc in 3% ethanol and 7% Tween 80; for Activity (%) 10 mg/kg sc: single 10 mg/kg sc in 3% ethanol and 7% Tween 80 on day 1 post-infection; for Survival (days) 3 mg/kg SSV po / Activity (%) 3 mg/kg SSV po: single 3 mg/kg po in SSV
Experimental: In the single dose STI in vivo screen, Moro SPF or NMRI mice infected with the ANKA strain of P. berghei (groups of three mice) were treated on day one post-infection with trioxolanes dissolved or suspended in 3% ethanol and 7% Tween 80. […] SSV consists of 0.5% w/v CMC, 0.5% v/v benzyl alcohol, 0.4% v/v Tween 80, and 0.9% w/v sodium chloride in water. Antimalarial activity was measured by percent reduction in parasitemia on day three post-infection and survival times compared to an untreated control group. Survival to day 30 post-infection is considered to be a cure. […] Other factors influencing antimalarial activity include the stability of carbon radicals formed by β-scission subsequent to the initial electron transfer to the peroxide bond and the influence of steric effects remote from the peroxide bond on the interactions between carbon radicals and potential drug targets.
Moro NMRI male mice (Fu Albino specific pathogen free) weighing 18±2 g were infected intravenously (i.v.) with 2×10^7 P. berghei ANKA strain-infected erythrocytes from donor mice on day 0 of the experiment. From donor mice with circa 30% parasitemia, heparinized blood was taken and diluted in physiological saline to 10^8 parasitized erythrocytes per ml. An aliquot (0.2 ml) of this suspension was injected i.v. into experimental and control groups of mice. […] Throughout the experiments, mice were kept in groups of three or five animals in Makrolon type II cages in an air-conditioned animal room at 22 to 23° C.
They were administered per os (p.o.) in a total volume of 0.01 ml per gram of mouse. The activity of the compound was determined by a variety of methods outlined in subsequent sections. Survival time was also recorded, and survival to day 30 post-infection was considered to be a cure.

[1] = percent reduction in parasitemia on day 3
[2] = single 10 mg/kg po in standard suspending vehicle (SSV) on day 1 post-infection, percent reduction in parasitemia on day 3

SMILES | Survival (days) 10 mg/kg po [days] | Activity (%) 10 mg/kg po [1] [%] | Survival (days) 10 mg/kg SSV po | Activity (%) 10 mg/kg SSV po [2] | Survival (days) 10 mg/kg sc [days] | Activity (%) 10 mg/kg sc [1] [%] | Survival (days) 3 mg/kg SSV po | Activity (%) 3 mg/kg SSV po [1] [%] | Activity (%) 10 mg/kg SSV po (po, 10 mg/kg)
O=C(c1ccncc1)N1CCC2(CC1)OOC1(O2)C2CC3CC(C2)CC1C3 (stereo not drawn) [OZ100, Adamantane-2-spiro-3′-8′-(4′-pyridinylcarbonyl)-1′,2′,4′-trioxa-8′-azaspiro[4.5]decane] | 6.7 | 61 | 6.3 days | 36% | 7.0 | 80 | – | – | –
O=C(COc1ccc(Cl)cc1)N1CCC2(CC1)OOC1(O2)C2CC3CC(C2)CC1C3 (stereo not drawn) [OZ101, Adamantane-2-spiro-3′-8′-(4′-chlorophenoxyacetyl)-1′,2′,4′-trioxa-8′-azaspiro[4.5]decane] | 6.3 | 44 | 5.3 days | 0% | 13 | 99.97 | – | – | –
O=C(Nc1ccccc1)N1CCC2(CC1)OOC1(O2)C2CC3CC(C2)CC1C3 (stereo not drawn) [OZ102, Adamantane-2-spiro-3′-8′-(phenylaminocarbonyl)-1′,2′,4′-trioxa-8′-azaspiro[4.5]decane] | 7.0 | 92 | 6.7 days | 73% | 19.7 | 99.97 | – | – | –
O=C(Cn1ccnc1)N1CCC2(CC1)OOC1(O2)C2CC3CC(C2)CC1C3 (stereo not drawn) [OZ103, Adamantane-2-spiro-3′-8′-(1′H-imidazol-1′-ylacetyl)-1′,2′,4′-trioxa-8′-azaspiro[4.5]decane] | 7.3 | 86 | 6.7 days | 63% | 7.3 | 87 | – | – | –
Cc1ccc(NC(=O)N2CCC3(CC2)OOC2(O3)C3CC4CC(C3)CC2C4)cc1 (stereo not drawn) [OZ142] | 6.0 | 0 | 6.3 days | 2% | 14.3 | 99.98 | – | – | –
O=C(N1CCOCC1)N1CCC2(CC1)OOC1(O2)C2CC3CC(C2)CC1C3 (stereo not drawn) [OZ188, Adamantane-2-spiro-3′-8′-(4′-morpholinylcarbonyl)-1′,2′,4′-trioxa-8′-azaspiro[4.5]decane] | 8.7 | 93 | 10.0 days | 98% | 9.0 | 99.87 | – | – | –
O=C(Nc1ccc(Cl)cc1)N1CCC2(CC1)OOC1(O2)C2CC3CC(C2)CC1C3 (stereo not drawn) [OZ192, Adamantane-2-spiro-3′-8′-[(4′-chlorophenylamino)carbonyl]-1′,2′,4′-trioxa-8′-azaspiro[4.5]decane] | 6.0 | 38 | 7.0 days | 45% | 13.7 | 99.98 | – | – | –
O=C(NC[C@H]1CC[C@]2(CC1)OO[C@]1(O2)C2CC3CC(C2)CC1C3)N1CCOCC1 [OZ272] | – | – | 10.3 days | 98% | – | – | 6.6 days | 49 | –
OC1(Cc2nc3ccccc3s2)CCC2(CC1)OOC1(O2)C2CC3CC(C2)CC1C3 (stereo not drawn) [OZ276] | – | – | 7.3/ND days | 17/ND % | – | – | – | – | –
O=C(NC[C@H]1CC[C@]2(CC1)OOC1(O2)C2CC3CC(C2)CC1C3)c1ccccc1O (stereo partly drawn) [OZ280] | – | – | 5.7ND days | – | – | – | – | – | 0/ND %
O=C(NC[C@H]1CC[C@]2(CC1)OOC1(O2)C2CC3CC(C2)CC1C3)c1ccc(O)nc1 (stereo partly drawn) [OZ282] | – | – | 8.3 days | 98.5% | – | – | 7.2 days | 53 | –
Nc1ncccc1C(=O)NC[C@H]1CC[C@]2(CC1)OOC1(O2)C2CC3CC(C2)CC1C3 (stereo partly drawn) [OZ284] | – | – | 9.0 days | 97% | – | – | 7.8 days | 61 | –
NC(=O)c1ccc(NC[C@H]2CC[C@]3(CC2)OOC2(O3)C3CC4CC(C3)CC2C4)cc1 (stereo partly drawn) [OZ286] | – | – | 8.7 days | 99.73% | – | – | 7.0 days | 60 | –
CCOC(=O)CNC[C@H]1CC[C@]2(CC1)OO[C@]1(O2)C2CC3CC(C2)CC1C3 [OZ290] | – | – | 9.0 days | 99.64% | – | – | 7.0 days | 95 | –
CCNC(=O)NC[C@H]1CC[C@]2(CC1)OO[C@]1(O2)C2CC3CC(C2)CC1C3 [OZ291] | – | – | 8.0 days | 98% | – | – | 6.8 days | 34 | –
c1cncc(NC[C@H]2CC[C@]3(CC2)OO[C@]2(O3)C3CC4CC(C3)CC2C4)c1 [OZ293] | – | – | 8.8 days | 99.58% | – | – | 7.4 days | 77 | –
NS(=O)(=O)c1ccc(NC[C@H]2CC[C@]3(CC2)OO[C@]2(O3)C3CC4CC(C3)CC2C4)cc1 [OZ298] | – | – | 9.4 days | – | – | – | 9.0 days | 98 | –
O=c1ccn(C[C@H]2CC[C@]3(CC2)OO[C@]2(O3)C3CC4CC(C3)CC2C4)cc1 [OZ302] | – | – | 9.0/9.0 days | – | – | – | 9.0/9.0 days | 88 | –
O=CN1CCN(C[C@H]2CC[C@]3(CC2)OO[C@]2(O3)C3CC4CC(C3)CC2C4)CC1 [OZ303] | – | – | 8.6 days | – | – | – | 7.6 days | 69 | –
O=C(NC[C@H]1CC[C@]2(CC1)OO[C@]1(O2)C2CC3CC(C2)CC1C3)c1ccccn1 [OZ304] | – | – | 8.2 days | 98% | – | – | 8.8 days | 61 | –
NCCNC(=O)C[C@H]1CC[C@]2(CC1)OO[C@]1(O2)C2CC3CC(C2)CC1C3 [OZ305] | – | – | 9.2 days | – | – | – | 9.6 days | 96 | –
CS(=O)(=O)N(CC(N)=O)C[C@H]1CC[C@]2(CC1)OO[C@]1(O2)C2CC3CC(C2)CC1C3 [OZ308] | – | – | 7.8 days | 86% | – | – | 6.6 days | 30 | –
Cn1ccnc1S(=O)(=O)C[C@H]1CC[C@]2(CC1)OO[C@]1(O2)C2CC3CC(C2)CC1C3 [OZ310] | – | – | 7.8 days | 81% | – | – | 8.2 days | 38 | –
NC(=O)C1CCN(C(=O)C[C@H]2CC[C@]3(CC2)OO[C@]2(O3)C3CC4CC(C3)CC2C4)CC1 [OZ311] | – | – | 8.6 days | 80% | – | – | 7.0 days | 40 | –
